Reference: PubChem BioAssay AID179 (DTP/NCI, 2004)
The source made the active and inactive calls.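 The calls were made as follows: active = compounds giving half or more protection of infected cells from virus-caused growth loss, again on retest; inactive = the rest.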

Test system: CEM cells HIV-1 protection, formazan growth assay
Test: NCI AIDS Antiviral Assay
Conditions: for IC50: measured here: growth of uninfected CEM cells
How it was run: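 Screen of anti-HIV-1 activity in human CEM cells using a formazan-based growth measurement at five drug concentrations. Hits with 50% or greater protection were repeated, and confirmation required reproducible complete protection.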

| Structure (SMILES) | EC50 [µM] | IC50 [µM] | outcome |
| --- | --- | --- | --- |
| NNC1=Nc2cc3c(cc2C(=O)N2C[C@H](O)CC12)OCO3 (stereo partly drawn) | > 200 | > 200 | – |
| CC(=O)c1c(O)ccc2c1CC(CC=O)O2 (stereo not drawn) | > 589 | 22.9 | – |
| N#Cc1c(N)nc2c3c1NC(=O)C(C(N)=O)C3c1ccccc1O2 (stereo not drawn) | > 200 | > 200 | – |
| Cc1ccc2nc(Nc3ccccc3C)c(Nc3ccccc3C)nc2c1 | – | – | inactive |
| O=C(O)CN(CCO)CCN(CC(=O)O)CC(=O)O.[Fe+2] | > 200 | > 200 | – |
| c1ccc(CSC(SCc2ccccc2)c2cccc3ccccc23)cc1 | 5.89 | > 200 | – |
| NC(=S=O)C(F)(F)C(F)(F)C(F)(F)F | > 105 | 89.1 | – |
| O=C(Nc1ccccc1C(=O)NCCCO)/C(=C/c1ccccc1O)NC(=O)c1ccccc1 | > 200 | > 200 | – |
| CC1(C)CC23C4COC(=O)C2CCC1C3CC4=O (stereo not drawn) | > 117 | 4.07 | – |
| CC(C)C1=CC23CCC4C(C)(C(=O)O)CCCC4(C)C2CC1C1C(=O)N(c2ccccc2)C(=O)C13 (stereo not drawn) | > 52.5 | > 52.5 | – |
| COc1c(N2CCCCC2)c2c(=O)c3ccccc3oc2c2cc(C)oc12 | > 200 | 11.2 | – |
| COc1ccc2c(c1OC)C(=O)c1cnccc1C2=O | 60.3 | 132 | – |
| Cc1csc(NNC(N)=O)n1 | > 200 | > 200 | – |
| CC(C)OC(=O)c1cc(NC(=O)C(C)(C)C)c(F)cc1Cl | – | – | inactive |
| CN(C)CCNC(=O)C1COc2cc(-c3cc(=O)c4ccccc4o3)ccc2O1 (stereo not drawn) | – | – | inactive |
| CC(C)(C)c1cc2c(O)c(c1)COCc1cc(C(C)(C)C)cc(c1O)COCc1cc(C(C)(C)C)cc(c1O)COC2 | > 200 | 145 | – |
| CC(C)=CCC/C(C)=C/CC/C(C)=C/Cc1c(O)c2ccccc2oc1=O | > 186 | 95.5 | – |
| COc1ccc2c(c1)c1c3n2CCNN=C3CCC1 | > 74.1 | > 74.1 | – |
| S=c1c2ccccc2c(=S)n2n1CC=CC2 | – | – | inactive |
| C/C(=N\Nc1ccc2ccccc2n1)c1ccccc1O | > 200 | 6.46 | – |
| CCOC(C)CCCS(=O)(=O)O (stereo not drawn) | > 200 | > 200 | – |
| C=CCO[C@H]1CC[C@@]2(C)C(CC[C@]3(C)C2CC=C2[C@@H]4[C@@H](C)C(C)CC[C@]4(C(=O)O)CCC23C)C1(C)C (stereo partly drawn) | – | – | inactive |

| Structure (SMILES) | EC50 [µM] | IC50 [µM] | outcome |
| --- | --- | --- | --- |
| CCCc1cc(=O)oc2c3c(c4c(c12)OC(C)(C)CC4)O[C@H](C)[C@H](C)C3=O | > 30.2 | 13.2 | – |
| O=C1c2ccccc2C(=O)N1C/C=N/NS(=O)(=O)c1ccc2ccccc2c1 | > 240 | > 240 | – |
| O=C1N=C2Sc3ccc4ccccc4c3N2C1=O | > 355 | 182 | – |
| COc1ccc(C(=O)C2CC3(CCC2(O)c2ccc(OC)cc2)CC(=O)Nc2ccccc2C3=O)cc1 (stereo not drawn) | > 200 | 72.4 | – |
| CCN(C(=S)N[C@H](C(=O)N[C@@H](C)C(=O)OC)C(C)C)c1ccccc1 | 0.575 | 29.5 | – |
| C[C@]12CCC3c4ccc(OS(=O)(=O)O)cc4CC[C@H]3C1CC[C@@H]2O (stereo partly drawn) | – | – | inactive |
| O=C(CC(=O)c1cccc([N+](=O)[O-])c1)C(=O)Nc1nc([N+](=O)[O-])cs1 | > 20 | > 20 | – |
| [Cu+2].[O-]/C(=N\N=C\c1ccccn1)c1ccccc1O.[O-]/C(=N\N=C\c1ccccn1)c1ccccc1O | > 200 | 10.2 | – |
| CC1=C(C(=O)NNC(=O)c2ccccc2)CC(C(=O)NNC(=O)c2ccccc2)=C(C)N1 | > 200 | > 200 | – |
| C/C=C/OC1C(C2COC(C)(C)O2)OC2OC(C)(C)OC21 (stereo not drawn) | > 200 | > 200 | – |
| CC(=O)OCC1C(=O)OCC1C(=O)N1Cc2cc3ccccc3nc2C1 (stereo not drawn) | > 20 | 0.331 | – |
| COc1cc(C[C@H]2COC(=O)[C@]2(O)Cc2ccc(O)c(OC)c2)ccc1O | 1.35 | 4.79 | – |
| O=C(/C(=N/Nc1ccc([N+](=O)[O-])cc1)c1ccccc1)c1ccccc1 | – | – | inactive |
| Cc1ccc(S(=O)(=O)/C(C#N)=C/NC(=S)Nc2ccc(S(N)(=O)=O)cc2)cc1 | – | – | inactive |
| Cc1ccc(SSC(=S)Nc2ccccc2)cc1 | – | – | inactive |
| CC(C)(C)[Si](C)(C)OC1(CCc2ccccc2OS(=O)(=O)C(F)(F)F)CCCC=C1COCc1ccccc1 (stereo not drawn) | > 200 | 39.8 | – |
| CC1=NN(C(=O)CC(=O)NC(=O)CC(=O)Nc2ccccc2F)C(=O)C1N=Nc1ccc([N+](=O)[O-])cc1 (stereo not drawn) | > 70.8 | 44.7 | – |
| Cc1ccc(S(=O)(=O)C(C#N)c2nc3ccccc3nc2-n2cccn2)cc1 (stereo not drawn) | > 200 | 126 | – |
| c1ccc(CN2CCC(Nc3ccccc3)(c3nnnn3Cc3ccccc3)CC2)cc1 | > 200 | 33.1 | – |
| COc1nc(NC2OC(CO)C(O)C(O)C2O)cc(=O)[nH]1 (stereo not drawn) | – | – | inactive |
| CSc1c(C(=O)Nc2ccccc2)c(N)nn1-c1ccccc1 | > 200 | 70.8 | – |
| Cc1nc2ccccc2c(=O)n1NC(=O)c1ccc(CS)cc1 | – | – | inactive |

| Structure (SMILES) | EC50 [µM] | IC50 [µM] | outcome |
| --- | --- | --- | --- |
| NC(C(=O)O)C(O)C(=O)O (stereo not drawn) | – | – | inactive |
| COc1cc2cc(c1Cl)N(C)C(=O)C[C@H](OC(=O)[C@H](C)N(C)C(C)=O)[C@]1(C)O[C@H]1[C@H](C)[C@@H]1C[C@@](O)(NC(=O)O1)[C@H](OC)C=C/C=C(\C)C2 | – | – | inactive |
| CCOC(=O)Nn1cnnc1C | > 200 | > 200 | – |
| CC1=C(C)C1[N+](=O)[O-] | > 200 | > 200 | – |
| CC(C)(C)c1cc2c(c(C(C)(C)C)c1O)CC(=O)O2 | > 200 | 41.7 | – |
| COc1ccc(-c2c3ccccc3c(-c3ccc(OCCCCCBr)cc3)c3ccccc23)cc1 | > 2.75 | > 2.75 | – |
| O=C(/C=C/c1ccccc1)CC1OC(=O)c2ccccc21 (stereo not drawn) | > 245 | 129 | – |
| CN1CCN(C(=S)N(C(=O)c2ccc(Cl)cc2)c2ccccc2)CC1 | > 13.8 | > 13.8 | – |
| Cn1nc2ccc3nccc(N(CCO)CCO)c3c2n1 | > 631 | 31.6 | – |
| O=c1oc2c3c4c(cc2c2c1CCC2)CCCN4CCC3 | > 6.76 | > 6.76 | – |
| Cc1n[nH]c(=O)n1Nc1ccccc1 | > 200 | > 200 | – |
| Cc1cc(C)c(C2=NOC(c3ccccc3)(c3cc(=O)n(-c4ccccc4)s3)O2)c(C)c1 (stereo not drawn) | 8.51 | 38 | – |
| C=CCC1(C(=O)OC)CCC/C(=N\O)C1 (stereo not drawn) | > 64.6 | > 64.6 | – |
| CCCCCCCCCCCCCCCCP(=O)(O)OCC(N)C(=O)O (stereo not drawn) | > 200 | 95.5 | – |
| O=C(Nc1nc2ncn(CCNCc3ccccc3)c2c(=O)[nH]1)c1ccccc1 | > 174 | 105 | – |
| N#C[C@@H](c1nc2ccccc2s1)c1ncccc1[N+](=O)[O-] | > 200 | 20 | – |
| Cc1c([N+](=O)[O-])c(=O)oc2c1ccc1occc(=O)c12 | > 132 | 117 | – |
| CCCCN1[C@@H](C)C=C[C@@H](C)S1=O (stereo partly drawn) | – | – | inactive |
| CCOC(=O)Nc1sc2c(c1C#N)CCCC2 | 41.7 | 105 | – |
| C(=NC12CC3CC(CC(C3)C1)C2)C1CCCCC1 | > 200 | > 200 | – |
| Cc1cn(CC(=O)NCCO)c(=O)[nH]c1=O | > 200 | > 200 | – |
| O=C1C2CC=C3CCS(=O)C3C2C(=O)N1c1ccccc1 (stereo not drawn) | > 417 | > 417 | – |
